Reference: patent US9801872B2, “Pyridinyl and fused pyridinyl triazolone derivatives” (Takeda Pharmaceutical Company Limited, priority 2013, dated 2017)

Biological target: human BTK (Homo sapiens (Human), UniProt Q06187)
Assay: BTK inhibition: BTK-mediated phosphorylation of FAM-labeled substrate 5-FAM-[…]-NH2 (Caliper LC-3000)
Assay type: biochemical
Details: residues 382 to 659 of human BTK; 60 minutes at room temperature; pIC50 = -log(IC50), IC50 molar
Text: The activity of compounds as BTK inhibitors may be determined by a variety of methods, including in vitro and in vivo methods.
This construct engineers an in-frame translational fusion with the Glutathione-S-Transferase (GST) protein for use in affinity purification. The fusion protein derived from this construct contains a protease recognition sequence to liberate the BTK from the GST affinity tag. High-titer baculoviral stocks, generated using the Bac-to-Bac® system (Invitrogen), are used to express the recombinant protein in Spodoptera frugiperda Sf9 cells in 10 L Wave bags. Recombinant proteins are isolated from cellular extracts by passage over Glutathione Sepharose 4B (GE Healthcare) and the BTK moiety is released from the GST affinity tag by treatment with PreScission protease. The BTK recombinant protein is further purified by size exclusion chromatography (HiLoad 16/60 Superdex 200, GE Healthcare) in a buffer containing 20 mM Hepes (pH 7.4), 50 mM NaCl, 10 mM MgCl2, 0.25 mM TCEP and 0.1 mM EDTA. The purity of the fractions is assessed by SDS PAGE and the peak protein fractions are pooled and concentrated using Amicon Ultra-15 Centrifugal Filter Devices (Millipore).
The inhibitory properties of compounds relative to BTK is determined using a black 384-well-plate format in a buffer which contains 50 mM Hepes, 10 mM NaCl, 10 mM MgCl2, 0.2 mM EDTA, 0.01% Brij35®, 1 mM DTT, and 0.1 mg/mL BSA at pH 7.3. The test compound is prepared in DMSO using 2-fold serial dilutions for 11 data points, which are added to the buffer so that each dilution contains 3% DMSO. […] The reaction mixtures are incubated at room temperature for 60 minutes and then quenched by adding 25 μL of 50 mM EDTA. To quantify the fluorescent-labeled substrate and product following reaction, the test plate is loaded on a Caliper LC-3000, which measures percent of conversion by microfluidic-based separation.
The compounds were tested in accordance with the assay described on page 42 of the specification.

Sequence of human BTK (Q06187 382-659): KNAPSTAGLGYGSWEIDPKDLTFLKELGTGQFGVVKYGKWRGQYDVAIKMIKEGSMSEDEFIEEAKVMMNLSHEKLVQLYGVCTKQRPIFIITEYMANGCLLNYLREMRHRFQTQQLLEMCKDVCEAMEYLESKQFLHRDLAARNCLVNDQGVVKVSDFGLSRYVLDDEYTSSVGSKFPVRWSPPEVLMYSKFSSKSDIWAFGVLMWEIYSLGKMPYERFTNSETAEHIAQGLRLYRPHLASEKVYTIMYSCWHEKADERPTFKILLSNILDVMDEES

Structure (SMILES) | BTK Inhibition (pIC50)
C=CC(=O)N1CC[C@H](N(C)c2nc(-c3n[nH]c(=O)[nH]3)cc3ccccc23)C1 [Example 11, (S)-3-(1-((1-acryloylpyrrolidin-3-yl)(methyl)amino)isoquinolin-3-yl)-1H-1,2,4-triazol-5(4H)-one] | 8.5
C=CC(=O)N1CC[C@H](Oc2cccc(-c3n[nH]c(=O)[nH]3)n2)C1 [Example 31, (S)-3-(6-((1-acryloylpyrrolidin-3-yl)oxy)pyridin-2-yl)-1H-1,2,4-triazol-5(4H)-one] | 7.2
C=CC(=O)N1CC[C@H](Nc2nc(-c3n[nH]c(=O)[nH]3)cc3ccc(Cl)cc23)C1 [Example 26, (S)-3-(1-((1-acryloylpyrrolidin-3-yl)amino)-7-chloroisoquinolin-3-yl)-1H-1,2,4-triazol-5 (4H)-one] | >8.6
C=CC(=O)N1CC[C@H](Oc2nc(-c3n[nH]c(=O)[nH]3)cc3ccc(F)cc23)C1 [Example 18, (S)-3-(1-((1-acryloylpyrrolidin-3-yl)oxy)-7-fluoroisoquinolin-3-yl)-1H-1,2,4-triazol-5(4H)-one] | >8.2
O=C(CCl)N1CC[C@H](Nc2nc(-c3n[nH]c(=O)[nH]3)cc3ccccc23)C1 [Example 34, (S)-5-(1-((1-(2-chloroacetyl)pyrrolidin-3-yl)amino)isoquinolin-3-yl)-2,4-dihydro-3H-1,2,4-triazol-3-one] | >8.6
C=CC(=O)N1CC[C@H](OCc2nc(-c3n[nH]c(=O)[nH]3)cc3ccccc23)C1 [Example 13, (S)-3-(1-(((1-acryloylpyrrolidin-3-yl)oxy)methyl)isoquinolin-3-yl)-1H-1,2,4-triazol-5(4H)-one] | >8.0
C=CC(=O)N1CC[C@H](Oc2nc(-c3n[nH]c(=O)[nH]3)cc3cccc(Cl)c23)C1 [Example 27, (S)-3-(1-((1-acryloylpyrrolidin-3-yl)oxy)-8-chloroisoquinolin-3-yl) -1H-1,2,4-triazol-5(4H)-one] | >8.9
C/C=C/C(=O)N1CC[C@H](Nc2nc(-c3n[nH]c(=O)[nH]3)cc3ccccc23)C1 [Example 15, (S,E)-3-(1-((1-(but-2-enoyl)pyrrolidin-3-yl)amino)isoquinolin-3-yl)-1H-1,2,4-triazol-5(4H)-one] | 7.6
